Data reported in ChEMBL document CHEMBL5385890, “A JAK tyrosine kinase and pseudokinase Co-inhibition strategy combines enhanced potency and on-demand activation” (Eur J Med Chem, 2023).
One block for each compound: values may come before it. Active and inactive are the calls of the source. The calls are words filed in the database; no cut-off is given here.

Columns and labels:
HEL [1] = assay: Cytotoxicity against HEL cells assessed as inhibition of cell growth; assay type: functional, cell-based; conditions: Homo sapiens
[2] = Stability of compound in PBS measured after 24 hrs; assay type: physicochemical
[3] = Stability of compound in mouse plasma measured after 24 hrs; assay type: ADME, cell-free
[4] = Stability of compound in human plasma measured after 24 hrs; assay type: ADME, cell-free
[5] = Cytotoxicity against HUVEC cells assessed as inhibition of cell growth; assay type: toxicity, cell-based; conditions: human
[6] = Prodrug release in PBS buffer in presence of NADH and nitroreductase assessed as N-tert-butyl-3-[[5-methyl-2-(4-piperazin-1-ylanilino)pyrimidin-4-yl]amino]benzenesulfonamide formation at 10 uM and measured after 120 mins under hypoxic condition by LC-MS/MS analysis; assay type: ADME; conditions: 2 h
[7] = Prodrug release in PBS buffer in presence of NADH and nitroreductase assessed as 3-cyclopropyl-1-(3-{5-[(morpholin-4-yl)methyl]-1H-1,3-benzodiazol-2-yl}-1H-pyrazol-4-yl)urea formation at 10 uM measured after 120 mins under hypoxic condition by LC-MS/MS analysis; assay type: ADME; conditions: 2 h
[8] = Prodrug release in HEL cells assessed as N-tert-butyl-3-[[5-methyl-2-(4-piperazin-1-ylanilino)pyrimidin-4-yl]amino]benzenesulfonamide formation at 1 uM incubated for 24 hrs under hypoxic condition by LC-MS/MS analysis; assay type: ADME, cell-based; conditions: human
[9] = Prodrug release in HEL cells assessed as 3-cyclopropyl-1-(3-{5-[(morpholin-4-yl)methyl]-1H-1,3-benzodiazol-2-yl}-1H-pyrazol-4-yl)urea formation at 1 uM incubated for 24 hrs under hypoxic condition by LC-MS/MS analysis; assay type: ADME, cell-based; conditions: human
HEL [10] = assay: Cytotoxicity against HEL cells assessed as inhibition of cell growth incubated under hypoxic condition; assay type: functional, cell-based; conditions: Homo sapiens
HEL [11] = assay: Cytotoxicity against HEL cells assessed as inhibition of cell growth incubated under normoxic condition; assay type: functional, cell-based; conditions: Homo sapiens
HEL [12] = assay: Inhibition of JAK/STAT phosphorylation in HEL cells assessed as reduction in STAT3 phosphorylation at 3 uM incubated under hypoxic condition by Western blot analysis; assay type: cell-based; conditions: Homo sapiens
HEL [13] = assay: Inhibition of JAK/STAT phosphorylation in HEL cells assessed as reduction in STAT5 phosphorylation at 3 uM incubated under hypoxic condition by Western blot analysis; assay type: cell-based; conditions: Homo sapiens
HEL [14] = assay: Inhibition of JAK/STAT phosphorylation in HEL cells assessed as reduction in STAT3 phosphorylation at 3 uM incubated under normoxic condition by Western blot analysis; assay type: cell-based; conditions: Homo sapiens
HEL [15] = assay: Inhibition of JAK/STAT phosphorylation in HEL cells assessed as reduction in STAT5 phosphorylation at 3 uM incubated under normoxic condition by Western blot analysis; assay type: cell-based; conditions: Homo sapiens
HEL [16] = assay: Antitumor activity against HEL cells xenografted in Balb/c nude mouse assessed as tumor growth inhibition at 40 mg/kg, ip administered once daily for 14 consecutive days relative to control; assay type: functional, Homo sapiens; conditions: 336 h, time 14 day, read-out: TGI
HEL [17] = assay: Antitumor activity against HEL cells xenografted in Balb/c nude mouse assessed as tumor growth inhibition at 80 mg/kg, ip administered once daily for 14 consecutive days relative to control; assay type: functional, Homo sapiens; conditions: 336 h, time 14 day, read-out: TGI
HEL [18] = assay: Antitumor activity against HEL cells xenografted in Balb/c nude mouse assessed as induction of apoptosis in tumor at 40 to 80 mg/kg, ip administered once daily for 14 consecutive days by TUNEL assay relative to control; assay type: functional, organism-based; conditions: Homo sapiens, dose 40-80 mg/kg, time 14.0 day
[19] = Toxicity in Balb/c nude mouse xenografted with HEL cells assessed as reduction in body weight at 40 to 80 mg/kg, ip administered for 14 consecutive days; assay type: organism-based; conditions: in vivo, 336 h, dose 40-80 mg/kg, time 14 day
Mus musculus [20] = assay: In vivo inhibition of JAK/STAT signalling in Balb/c nude mouse xenografted with HEL cells assessed as reduction in STAT3 phosphorylation in heart at 40 to 80 mg/kg, ip administered for 14 consecutive days by Western blot analysis; assay type: functional, organism-based; conditions: dose 40-80 mg/kg, time 14.0 day
Mus musculus [21] = assay: In vivo inhibition of JAK/STAT signalling in Balb/c nude mouse xenografted with HEL cells assessed as reduction in STAT5 phosphorylation in heart at 40 to 80 mg/kg, ip administered for 14 consecutive days by Western blot analysis; assay type: functional, organism-based; conditions: dose 40-80 mg/kg, time 14.0 day
Mus musculus [22] = assay: In vivo inhibition of JAK/STAT signalling in Balb/c nude mouse xenografted with HEL cells assessed as reduction in STAT3 phosphorylation in liver at 40 to 80 mg/kg, ip administered for 14 consecutive days by Western blot analysis; assay type: functional, organism-based; conditions: dose 40-80 mg/kg, time 14.0 day
Mus musculus [23] = assay: In vivo inhibition of JAK/STAT signalling in Balb/c nude mouse xenografted with HEL cells assessed as reduction in STAT5 phosphorylation in liver at 40 to 80 mg/kg, ip administered for 14 consecutive days by Western blot analysis; assay type: functional, organism-based; conditions: dose 40-80 mg/kg, time 14.0 day
Mus musculus [24] = assay: In vivo inhibition of JAK/STAT signalling in Balb/c nude mouse xenografted with HEL cells assessed as reduction in STAT3 phosphorylation in spleen at 40 to 80 mg/kg, ip administered for 14 consecutive days by Western blot analysis; assay type: functional, organism-based; conditions: dose 40-80 mg/kg, time 14.0 day
Mus musculus [25] = assay: In vivo inhibition of JAK/STAT signalling in Balb/c nude mouse xenografted with HEL cells assessed as reduction in STAT5 phosphorylation in spleen at 40 to 80 mg/kg, ip administered for 14 consecutive days by Western blot analysis; assay type: functional, organism-based; conditions: dose 40-80 mg/kg, time 14.0 day
Mus musculus [26] = assay: In vivo inhibition of JAK/STAT signalling in Balb/c nude mouse xenografted with HEL cells assessed as reduction in STAT3 phosphorylation in lung at 40 to 80 mg/kg, ip administered for 14 consecutive days by Western blot analysis; assay type: functional, organism-based; conditions: dose 40-80 mg/kg, time 14.0 day
Mus musculus [27] = assay: In vivo inhibition of JAK/STAT signalling in Balb/c nude mouse xenografted with HEL cells assessed as reduction in STAT5 phosphorylation in lung at 40 to 80 mg/kg, ip administered for 14 consecutive days by Western blot analysis; assay type: functional, organism-based; conditions: dose 40-80 mg/kg, time 14.0 day
Mus musculus [28] = assay: In vivo inhibition of JAK/STAT signalling in Balb/c nude mouse xenografted with HEL cells assessed as reduction in STAT3 phosphorylation in kidney at 40 to 80 mg/kg, ip administered for 14 consecutive days by Western blot analysis; assay type: functional, organism-based; conditions: dose 40-80 mg/kg, time 14.0 day
Mus musculus [29] = assay: In vivo inhibition of JAK/STAT signalling in Balb/c nude mouse xenografted with HEL cells assessed as reduction in STAT5 phosphorylation in kidney at 40 to 80 mg/kg, ip administered for 14 consecutive days by Western blot analysis; assay type: functional, organism-based; conditions: dose 40-80 mg/kg, time 14.0 day
[30] = Cytotoxicity against HUVEC cells assessed as inhibition of cell growth incubated in presence of N-tert-butyl-3-[[5-methyl-2-(4-piperazin-1-ylanilino)pyrimidin-4-yl]amino]benzenesulfonamide; conditions: human
[31] = Prodrug release in HEL cells assessed as N-tert-butyl-3-[[5-methyl-2-(4-piperazin-1-ylanilino)pyrimidin-4-yl]amino]benzenesulfonamide formation at 1 uM illuminated with 405 nm light for 10 mins and measured after 6 hrs by LC-MS/MS analysis; assay type: ADME, cell-based; conditions: human, 6.167 h, time 370 min
[32] = Prodrug release in HEL cells assessed as 3-cyclopropyl-1-(3-{5-[(morpholin-4-yl)methyl]-1H-1,3-benzodiazol-2-yl}-1H-pyrazol-4-yl)urea formation at 1 uM illuminated with 405 nm light for 10 mins and measured after 6 hrs by LC-MS/MS analysis; assay type: ADME, cell-based; conditions: human, 6.167 h, time 370 min
[33] = Prodrug release in HEL cells assessed as N-tert-butyl-3-[[5-methyl-2-(4-piperazin-1-ylanilino)pyrimidin-4-yl]amino]benzenesulfonamide formation at 1 uM incubated under dark condition for 6 hrs by LC-MS/MS analysis; assay type: ADME, cell-based; conditions: human
[34] = Prodrug release in HEL cells assessed as 3-cyclopropyl-1-(3-{5-[(morpholin-4-yl)methyl]-1H-1,3-benzodiazol-2-yl}-1H-pyrazol-4-yl)urea formation at 1 uM incubated under dark condition for 6 hrs by LC-MS/MS analysis; assay type: ADME, cell-based; conditions: human
HEL [35] = assay: Cytotoxicity against HEL cells assessed as inhibition of cell growth irradiated with 450 nm light; assay type: functional, cell-based; conditions: Homo sapiens, light or radiation study
HEL [36] = assay: Cytotoxicity against HEL cells assessed as inhibition of cell growth incubated under dark condition; assay type: functional, cell-based; conditions: Homo sapiens
HEL [37] = assay: Inhibition of JAK/STAT phosphorylation in HEL cells assessed as reduction in STAT3 phosphorylation at 1 uM irradiated with 450 nm light by Western blot analysis relative to control; assay type: cell-based; conditions: Homo sapiens
HEL [38] = assay: Inhibition of JAK/STAT phosphorylation in HEL cells assessed as reduction in STAT5 phosphorylation at 1 uM irradiated with 450 nm light by Western blot analysis relative to control; assay type: cell-based; conditions: Homo sapiens
HEL [39] = assay: Inhibition of JAK/STAT phosphorylation in HEL cells assessed as reduction in STAT3 phosphorylation at 1 uM incubated under dark condition by Western blot analysis relative to control; assay type: cell-based; conditions: Homo sapiens
HEL [40] = assay: Inhibition of JAK/STAT phosphorylation in HEL cells assessed as reduction in STAT5 phosphorylation at 1 uM incubated under dark condition by Western blot analysis relative to control; assay type: cell-based; conditions: Homo sapiens

SMILES: CC[C@@](C)(Nc1ccnc(-c2c[nH]c3ncccc23)n1)C(=O)NCC(F)(F)F [DECERNOTINIB]
IC50 (HEL [1]): 2.56 µM

Stability ([2]; buffer, 24 h): Stable
Stability ([3]; 24 h): Stable
Stability ([4]; 24 h): Stable
Drug metabolism [6]: 6.57 µM
Drug metabolism [7]: 6.49 µM
Drug metabolism [8]: Metabolite_Detected
Drug metabolism [9]: Metabolite_Detected
SMILES: Cc1cc(COC(=O)N2CCN(c3ccc(Nc4ncc(C)c(Nc5cccc(S(=O)(=O)NC(C)(C)C)c5)n4)cc3)CC2)c(OCc2cnc([N+](=O)[O-])n2C)c(COC(=O)n2cc(NC(=O)NC3CC3)c(-c3nc4cc(CN5CCOCC5)ccc4[nH]3)n2)c1
IC50 [5]: 84.4 µM
IC50 (HEL [10]): 3.1 µM
IC50 (HEL [11]): > 200 µM
inhibition (HEL [12]): Active
inhibition (HEL [13]): Active
inhibition (HEL [14]): inactive
inhibition (HEL [15]): inactive
inhibition in vivo at 40 mg/kg (HEL [16]): 59.8%
inhibition in vivo at 80 mg/kg (HEL [17]): 88.9%
Activity (HEL [18]): Active
Activity [19]: Non-Toxic
inhibition (Mus musculus [20]): inactive
inhibition (Mus musculus [21]): inactive
inhibition (Mus musculus [22]): inactive
inhibition (Mus musculus [23]): inactive
inhibition (Mus musculus [24]): inactive
inhibition (Mus musculus [25]): inactive
inhibition (Mus musculus [26]): inactive
inhibition (Mus musculus [27]): inactive
inhibition (Mus musculus [28]): inactive
inhibition (Mus musculus [29]): inactive

SMILES: O=C(Nc1c[nH]nc1-c1nc2cc(CN3CCOCC3)ccc2[nH]1)NC1CC1 [AT-9283]
IC50 [5]: 1.77 µM
IC50 [30]: 1.76 µM

remaining at 24 h ([2]; PBS, read-out: Stability): > 95.1%
remaining at 24 h ([3]; read-out: Stability): > 82.8%
remaining at 24 h ([4]; read-out: Stability): > 78.3%
Drug metabolism [31]: Metabolite_Detected
Drug metabolism [32]: Metabolite_Detected
Drug metabolism [33]: Metabolite_Notdetected
Drug metabolism [34]: Metabolite_Notdetected
SMILES: CCN(CC)c1ccc2c(COC(=O)Oc3c(COC(=O)N4CCN(c5ccc(Nc6ncc(C)c(Nc7cccc(S(=O)(=O)NC(C)(C)C)c7)n6)cc5)CC4)cc(C)cc3COC(=O)n3cc(NC(=O)NC4CC4)c(-c4nc5cc(CN6CCOCC6)ccc5[nH]4)n3)cc(=O)oc2c1
IC50 [5]: > 200 µM
IC50 (HEL [35]): 1.81 µM
IC50 (HEL [36]): > 200 µM
inhibition (HEL [37]): 100%
inhibition (HEL [38]): 100%
inhibition (HEL [39]): inactive
inhibition (HEL [40]): inactive
